O=[N+]([O-])c1cc([N+](=O)[O-])c(Cl)cc1Cl
Conditions | solubility (mole fraction)
in 1,2-dichloroethane, 298.15 K | 0.138
in 1,2-dichloroethane, 303.15 K | 0.156
in 1,2-dichloroethane, 308.15 K | 0.176
in 1,2-dichloroethane, 313.15 K | 0.199
in 1,2-dichloroethane, 318.15 K | 0.224
in 1,2-dichloroethane, 323.15 K | 0.251
in 1,2-dichloroethane, 328.15 K | 0.282
in 1,2-dichloroethane, 333.15 K | 0.316
in DMF, 298.15 K | 0.286
in DMF, 303.15 K | 0.308
in DMF, 308.15 K | 0.329
in DMF, 313.15 K | 0.353
in DMF, 318.15 K | 0.378
in DMF, 323.15 K | 0.406
in DMF, 328.15 K | 0.436
in DMF, 333.15 K | 0.469
in DMSO, 298.15 K | 0.192
in DMSO, 303.15 K | 0.215
in DMSO, 308.15 K | 0.241
in DMSO, 313.15 K | 0.269
in DMSO, 318.15 K | 0.3
in DMSO, 323.15 K | 0.332
in DMSO, 328.15 K | 0.368
in DMSO, 333.15 K | 0.408
in NMP, 298.15 K | 0.362
in NMP, 303.15 K | 0.381
in NMP, 308.15 K | 0.4
in NMP, 313.15 K | 0.421
in NMP, 318.15 K | 0.444
in NMP, 323.15 K | 0.468
in NMP, 328.15 K | 0.495
in NMP, 333.15 K | 0.524
in acetone, 288.15 K | 0.169
in acetone, 293.15 K | 0.187
in acetone, 298.15 K | 0.206
in acetone, 303.15 K | 0.227
in acetone, 308.15 K | 0.249
in acetone, 313.15 K | 0.273
in acetone, 318.15 K | 0.298
in acetone, 323.15 K | 0.326
in acetonitrile, 298.15 K | 0.129
in acetonitrile, 303.15 K | 0.154
in acetonitrile, 308.15 K | 0.183
in acetonitrile, 313.15 K | 0.217
in acetonitrile, 318.15 K | 0.254
in acetonitrile, 323.15 K | 0.296
in acetonitrile, 328.15 K | 0.344
in acetonitrile, 333.15 K | 0.397
in chloroform, 293.15 K | 0.108
in chloroform, 298.15 K | 0.128
in chloroform, 303.15 K | 0.149
in chloroform, 308.15 K | 0.175
in chloroform, 313.15 K | 0.205
in chloroform, 318.15 K | 0.238
in chloroform, 323.15 K | 0.274
in chloroform, 328.15 K | 0.319
in dichloromethane, 278.15 K | 0.0915
in dichloromethane, 283.15 K | 0.106
in dichloromethane, 288.15 K | 0.121
in dichloromethane, 293.15 K | 0.138
in dichloromethane, 298.15 K | 0.158
in dichloromethane, 303.15 K | 0.181
in dichloromethane, 308.15 K | 0.205
in ethanol, 298.15 K | 0.00702
in ethanol, 303.15 K | 0.00858
in ethanol, 308.15 K | 0.0104
in ethanol, 313.15 K | 0.0126
in ethanol, 318.15 K | 0.0156
in ethanol, 323.15 K | 0.0189
in ethanol, 328.15 K | 0.0232
in ethanol, 333.15 K | 0.0282
in ethyl acetate, 298.15 K | 0.17
in ethyl acetate, 303.15 K | 0.189
in ethyl acetate, 308.15 K | 0.207
in ethyl acetate, 313.15 K | 0.228
in ethyl acetate, 318.15 K | 0.251
in ethyl acetate, 323.15 K | 0.277
in ethyl acetate, 328.15 K | 0.306
in ethyl acetate, 333.15 K | 0.336
in isopropanol, 298.15 K | 0.00322
in isopropanol, 303.15 K | 0.00429
in isopropanol, 308.15 K | 0.00581
in isopropanol, 313.15 K | 0.00763
in isopropanol, 318.15 K | 0.01
in isopropanol, 323.15 K | 0.0131
in isopropanol, 328.15 K | 0.0173
in isopropanol, 333.15 K | 0.0223
in methanol, 298.15 K | 0.00929
in methanol, 303.15 K | 0.0112
in methanol, 308.15 K | 0.0135
in methanol, 313.15 K | 0.0163
in methanol, 318.15 K | 0.0197
in methanol, 323.15 K | 0.0236
in methanol, 328.15 K | 0.0284
in methanol, 333.15 K | 0.0341
in n-butanol, 298.15 K | 0.00624
in n-butanol, 303.15 K | 0.00794
in n-butanol, 308.15 K | 0.0101
in n-butanol, 313.15 K | 0.0128
in n-butanol, 318.15 K | 0.016
in n-butanol, 323.15 K | 0.0201
in n-butanol, 328.15 K | 0.025
in n-butanol, 333.15 K | 0.0308
in tetrachloromethane, 298.15 K | 0.0153
in tetrachloromethane, 303.15 K | 0.0207
in tetrachloromethane, 308.15 K | 0.0276
in tetrachloromethane, 313.15 K | 0.0368
in tetrachloromethane, 318.15 K | 0.049
in tetrachloromethane, 323.15 K | 0.0638
in tetrachloromethane, 328.15 K | 0.0835
in tetrachloromethane, 333.15 K | 0.108
in toluene, 298.15 K | 0.201
in toluene, 303.15 K | 0.225
in toluene, 308.15 K | 0.25
in toluene, 313.15 K | 0.277
in toluene, 318.15 K | 0.307
in toluene, 323.15 K | 0.34
in toluene, 328.15 K | 0.374
in toluene, 333.15 K | 0.413
